Data reported in patent US20080138437A1, “Antitumor Agent” (priority 2004, published 2008).
Where a name gives a salt, the structure may show the parent alone. Read-outs that look alike come from different tables or passages of the source.

What was measured:
[1] = in vivo; conditions: BDF1, mouse, sc
[2] = system: C57BL/6 male mouse; conditions: one-time, 14 days observation
[3] = system: OVCAR-3 ovarian cancer cells; test: Antitumor test, transplanted tumor in nude mice; type: in vivo, human; conditions: control, drug without hydroxyapatite adsorption
Text: (§1) (Experimental Test 5-1 to 5-5).
(§2) Female nude mice (7 weeks old, 16 to 22 g) with a BALB/c genetic background were used for the tests. Human cancer cells used for the tests were GCIY stomach cancer cells, HCT-15 colon cancer cells, A549 lung cancer cells, and OVCAR-3 ovarian cancer cells. Human cancer cells were subcutaneously transplanted into nude mice, tumor lumps were formed, and these carcinomas were used for the tests.
(§3) Aseptically collected tumors were sliced into tumors of 3×3×3 mm, and then subcutaneously transplanted into a new nude mouse. When the tumors reached a volume of 100 to 300 mm^3, the animals were arbitrarily divided into groups of six (Day 0). […] Intravascular administration was the administration route for all.
(§4) After administration, between Days 24 to 31, the length (L) and width (W) of the tumor lump of the animal were measured twice a week, and the tumor volume (TV) was calculated according to the following formula: TV=(L×W^2)/2. Antitumor effect was determined at Day 14. The relative tumor volume (RTV) was obtained by the following formula: RTV=TV14/TV0, using values of the tumor volume at Day 0 and Day 14 (referred to as TV0 and TV14). Antitumor effect was evaluated as the tumor regression rate at Day 14 (T/C%). Herein, T/C %=100×(average RTV of the treated group)/(RTV of the control group).
(§5) As a control, each drug was tested without hydroxyapatite adsorption (Comparative Tests 5-10 to 5-14).

[4] = system: A549 lung cancer cells; test: Antitumor test, transplanted tumor in nude mice; type: in vivo, human; conditions: control, drug without hydroxyapatite adsorption
Text: as §1, §2, §3, §4, §5

[5] = system: HCT-15 colon cancer cells; test: Antitumor test, transplanted tumor in nude mice; type: in vivo, human; conditions: control, drug without hydroxyapatite adsorption
Text: as §1, §2, §3, §4, §5

[6] = system: GCIY stomach cancer cells; test: Antitumor test, transplanted tumor in nude mice; type: in vivo, human; conditions: control, drug without hydroxyapatite adsorption
Text: as §1, §2, §3, §4, §5

[7] = system: 15 types of human cancer cells; test: Cell growth inhibition test, MTT, average GI 50; type: cell-based; conditions: average of 15 human cancer cell types, 48 hours exposure
Description: Appropriate amounts of each of the human cancer cells suspended in 5% fetal bovine serum-supplemented medium were plated into a 96-well plate, and allowed to adhere to the wells in a 37° C. CO2 incubator overnight.
These cancer cells were exposed to each anticancer agent for 48 hours. Cell growth was assayed by MTT. Absorbance of the control well (C) and the test well (T) was measured at 550 nm.
The absorbance of the test well immediately after adding the drug (TO) was also measured. Using these measured values, GI 50 of each drug was calculated, and the drug concentration at that time was obtained. For comparison, a similar test was performed for each of the anticancer agents (Comparative Tests 4-1 to 4-7).

[8] = in vivo; conditions: male, C57BL/6, mouse
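Wherever deaths versus administered animals is given: mice given a single dose and followed for 14 days, with deaths tallied, LD50 derived from the doses given and the resulting death counts.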

Row | Structure (SMILES) | LD50 [1] [mg/kg] | deaths versus administered animals ([2]; 10 mg/kg intravascular) | deaths versus administered animals ([2]; 20 mg/kg intravascular) | deaths versus administered animals ([2]; 30 mg/kg intravascular) | deaths versus administered animals ([2]; 40 mg/kg intravascular) | deaths versus administered animals ([2]; 50 mg/kg intravascular) | deaths versus administered animals ([2]; 60 mg/kg intravascular) | Regression rate of transplanted cancer (T/C %) at Day 14 [3] [%] | Regression rate of transplanted cancer (T/C %) at Day 14 [4] [%] | Regression rate of transplanted cancer (T/C %) at Day 14 [5] [%] | Regression rate of transplanted cancer (T/C %) at Day 14 [6] [%] | GI50 [7] [nM] | LD50 [8] [mg/kg] | LD50 ([8]; po) [mg/kg] | deaths versus administered animals ([2]; 1.0 mg/kg intravascular) | deaths versus administered animals ([2]; 1.5 mg/kg intravascular) | deaths versus administered animals ([2]; 2.0 mg/kg intravascular) | deaths versus administered animals ([2]; 3.0 mg/kg intravascular) | deaths versus administered animals ([2]; 3.5 mg/kg intravascular)
1 | Cc1ncc(CNC(=O)N(CCCl)N=O)c(N)n1 [Nimustine hydrochloride] | 50 | – | – | – | – | – | – | – | – | – | – | – | – | – | – | – | – | – | –
2 | COc1cc([C@@H]2c3cc4c(cc3[C@@H](O[C@@H]3O[C@@H]5CO[C@@H](C)O[C@H]5[C@H](O)[C@H]3O)[C@H]3COC(=O)[C@H]23)OCO4)cc(OC)c1O [Etoposide] | – | 0/6 | 1/6 | 2/6 | 5/7 | 5/6 | 6/6 | 76 | 72 | 67 | 93 | 5110 | 32.7 | 220 | – | – | – | – | –
3 | CC[C@]1(O)C[C@H]2CN(CCc3c([nH]c4ccccc34)[C@@](C(=O)OC)(c3cc4c(cc3OC)N(C=O)[C@H]3[C@@](O)(C(=O)OC)[C@H](OC(C)=O)[C@]5(CC)C=CCN6CC[C@]43[C@@H]65)C2)C1 [Vincristine sulfate] | – | – | – | – | – | – | – | 79 | 76 | 101 | 81 | 3.6 | 1.98 | – | 0/5 | 2/5 | 3/8 | 7/8 | 8/8
4 | COc1cccc2c1C(=O)c1c(O)c3c(c(O)c1C2=O)C[C@@](O)(C(=O)CO)C[C@@H]3O[C@H]1C[C@H](N)[C@H](O)[C@H](C)O1 [Doxorubicin] | 10 | – | – | – | – | – | – | – | – | – | – | 72 | – | – | – | – | – | – | –
